Columns and labels:
[1] = system: human promyelocytic leukemia HL-60; test: MTT method: cell growth suppressing / apoptosis-inducing activity; format: cell-based; conditions: for apoptosis-inducing activity / cancer cell growth suppressing activity: HL-60, MTT method of Example 1, 48 hours; for apoptosis-inducing activity of the non-heated solution: HL-60, 48 hours, MTT method
Method: Heated and non-heated substances of each of them were sterilized by a membrane filter of 0.22 μm to prepare samples for the apoptosis-inducing activity. Those samples were diluted with aseptic distilled water to an extent of 2-, 4-, 8-, 16- and 32-fold, their activity for suppressing the cell growth to the human promyelocytic leukemia HL-60 was measured as follows and their intensity or the apoptosis-inducing activity was compared.
Thus, 10 μl of each of the diluted solutions or 10 μl of aseptic distilled water were placed in a well of a 96-well microtiter plate. Then 90 μl of an RPMI 1640 medium (manufactured by Nissui) containing 10% of fetal bovine serum (manufactured by Gibco) which contained 5000 HL-60 cells (ATCC CCL240) were added thereto and an incubation was carried out at 37° C. for 48 hours in the presence of 5% carbon dioxide gas. After observing the shape of the cells under an optical microscope, 10 μl of a phosphate-buffered aqueous saline solution containing 5 mg/ml of 3-(4,5-dimethylthiazol-2-yl)-2,5-diphenyltetrazolium bromide (MTT; manufactured by Sigma), an incubation was continued for four hours more and state of growth of cells and formation of formazan produced in the cells were observed under a microscope. Further, 100 μl of 2-propanol containing 0.04N HCl were added thereto followed by well stirring and the absorbance at 590 nm was measured and used as a degree of growth of cells (an MTT method).
The solvent of the fraction was appropriately evaporated to substitute with a 50% aqueous solution of ethanol and the activity for suppressing the growth of cancer cells was measured by an MTT method mentioned in Example 1 except that the sample was diluted to a two-fold series using a 50% aqueous solution of ethanol and 2 μl of each of the diluted solutions or 2 μl of a 50% aqueous solution of ethanol were placed in a well of a flat-bottom 96-well microplate. Time for incubation was 16 hours.

HL-60 cells [2] = test: Trypan Blue staining, survival rate; format: cell-based; conditions: Homo sapiens, HL-60, 24 hours, concentration where survival rate becomes 50%, read-out: Survival Rate50
Method: (3) The cells which were incubated for 24 hours by the same manner as in Example 9-(2) were stained with 0.4% Trypan Blue and observed under an optical microscope, numbers of viable cells which were not stained and of dead cells which were stained in blue were measured, concentration (survival rate50) of each of the samples where survival rate becomes 50% was determined and the result is given in Table 1.

HL-60 cells [3] = test: analysis of fragmentation of DNA; format: cell-based, human
Method: (2) HL-60 cells which were incubated on an RPMI 1640 medium containing 10% of fetal bovine serum processed at 56° C. for 30 minutes were suspended in an RPMI 1640 medium to make 2.5×10^5 cells/5 ml.
To 5 ml the suspension were added 10 μl of 12.5 mM, 25 mM, 50 mM or 100 mM of a 70% ethanolic solution of 4,5-dihydroxy-2-pentenal, 0.05 mM, 0.5 mM, 5 mM or 50 mM of a 70% ethanolic solution of 4-hydroxy-2-cyclopenten-1-one, 5 mM, 10 mM or 20 mM of a 70% ethanolic solution of 4-(9-adeninyl)-2-cyclopenten-1-one prepared in Example 4-(4), 2.5 mM, 5 mM, 15 mM or 25 mM of a 70% ethanolic solution of 4-(9-guaninyl)-2-cyclopenten-1-one prepared in Example 4-(5) 75 mM, 150 mM or 300 mM of a 70% ethanolic solution of 1,5-epoxy-1-hydroxy-3-penten-2-one prepared in Example 5-(2) or 5 mM, 25 mM or 50 mM of a 70% ethanolic solution of 2-(trans-3,4-dihydroxy-1-butenyl)-4-(trans-2-formylvinyl)-1,3-dioxolane prepared in Example 6-(2) followed by incubating at 37° C. in the presence of 5% of carbon dioxide gas for 24 hours and 48 hours and the resulting cells were subjected to a measurement of apoptosis cells using FACScan by a method mentioned in pages 129-130 of “Experimental Protocol Series—Apoptosis Experiment Protocol” which was an extra issue of “Saibo Kogaku (Cell Technology)” (published by Shujunsha in 1994) and also to a measurement of analysis of fragmentation of DNA by a method mentioned in page 61-63 of “Biomanual UP Series—New Experimental Methods for Apoptosis” (published by Yodosha in 1995).

HL-60 cells [4] = test: observation of apoptosis under an optical microscope; format: cell-based, human; conditions: HL-60, 24 hours
Method: (1) HL-60 cells (ATCC CCL-240) incubated at 37° C. in an RPMI 1640 medium (manufactured by BioWhittaker) containing 10% of fetal bovine serum (manufactured by JRH) treated at 56° C. for 30 minutes were suspended in an RPMI 1640 medium to make the concentration 2.5×10^5 cells/5 ml.
To 5 ml of this suspension were added 10 μl of 12.5 mM, 25 mM, 50 mM or 100 mM of a 70% ethanolic solution of 4,5-dihydroxy-2-pentenal prepared in Example 6-(1), 0.05 mM, 0.5 mM, 5 mM or 50 mM of a 70% ethanolic solution of 4-hydroxy-2-cyclopenten-1-[…] prepared in Example 6-(1), 5 mM, 10 mM or 20 mM of a 70% ethanolic solution of 4-(9-adeninyl)-2-cyclopenten-1-one prepared in Example 4-(4), 2.5 mM, 5 mM, 15 mM or 25 mM of a 70% ethanolic solution of 4-(9-guaninyl)-2-cyclopenten-1-one prepared in Example 4-(5), 75 mM, 150 mM or 300 mM of a 70% ethanolic solution of 1,5-epoxy-1-hydroxy-3-penten-2-one prepared in Example 5-(2) or 5 mM, 25 mM or 50 mM of a 70% ethanolic solution of 2-(trans-3,4-dihydroxy-1-butenyl)-4-(trans-2-formylvinyl)-1,3-dioxolane prepared in Example 6-(2) followed by incubating at 37° C. in the presence of 5% carbon dioxide gas for 24 hours.
Incidentally, such phenomena were not noted in the incubated cells to which […] of 70% ethanolic solution were added used as a control.

HL-60 cells [5] = test: measurement of apoptosis cells using FACScan; format: cell-based, human; conditions: HL-60, 24 hours and 48 hours
Method: (2) HL-60 cells which were incubated on an RPMI 1640 medium containing 10% of fetal bovine serum processed at 56° C. for 30 minutes were suspended in an RPMI 1640 medium to make 2.5×10^5 cells/5 ml. […]

**Q.** Which “apoptosis-inducing activity / cancer cell growth suppressing activity” value [1] does the source give for NC(CCC(=O)NC(CSC1CC(=O)CC1O)C(=O)NCC(=O)O)C(=O)O (single isomer, unassigned) [peak 3] here?
**A.** noted

**Q.** How did the “apoptosis-inducing activity of the non-heated solution” value [1] turn out when O=C[C@H](O)[C@@H](O)[C@@H](O)CO [L(+)-arabinose] was run?
**A.** no apoptosis-inducing activity

**Q.** O=C[C@H](O)[C@@H](O)[C@H](O)CO [D(+)-xylose] was tested. Which “apoptosis-inducing activity of the non-heated solution” value [1] did it give?
**A.** no apoptosis-inducing activity

**Q.** NC(CCC(=O)NC(CSC1CC(=O)CC1O)C(=O)NCC(=O)O)C(=O)O (single isomer, unassigned) [peak 1] was tested. Which “apoptosis-inducing activity / cancer cell growth suppressing activity” value [1] did it give?
**A.** noted

**Q.** With O=C1C=CC(O)C1O (centres unmarked) [4,5-dihydroxy-2-cyclopenten-1-one] as the compound, how does the “cancer cell growth suppressing activity and apoptic body formation” value ([1]; HL-60, MTT method of Example 4-(2), sample in 50% ethanol, 16 hours) read?
**A.** confirmed

**Q.** How did the IC50 (HL-60 cells [2]) turn out when Nc1ncnc2c1ncn2C1C=CC(=O)C1 (centres unmarked) [4-(9-adeninyl)-2-cyclopenten-1-one] was run?
**A.** 22.4 µM

**Q.** What about the “fragmentation of DNA” value (HL-60 cells [3]; HL-60, 10 μM final concentration) of the same compound?
**A.** confirmed

**Q.** And the “fragmentation of DNA” value (HL-60 cells [3]; HL-60, 30 μM final concentration)?
**A.** confirmed

**Q.** O=C1C=CCOC1O (centres unmarked) [1,5-epoxy-1-hydroxy-3-penten-2-one] was tested. Which “final concentration at which aggregation of nuclei, reduction in size of the cells and formation of apoptic body were confirmed” value (HL-60 cells [4]) did it give?
**A.** ≥ 625 µM

**Q.** What about the “final concentration at which apoptosis cells were confirmed” value (HL-60 cells [5]) of the same compound?
**A.** ≥ 600 µM

**Q.** And the IC50 (HL-60 cells [2])?
**A.** 438 µM

**Q.** How did the “apoptosis-inducing activity of the non-heated solution” value [1] turn out when O=CC[C@H](O)[C@H](O)CO [2-deoxy-D-ribose] was run?
**A.** no apoptosis-inducing activity

**Q.** O=C[C@H](O)[C@H](O)[C@H](O)CO [non-heated aqueous solution of D-ribose, D-ribose] was tested. Which “apoptosis-inducing activity of the non-heated solution” value [1] did it give?
**A.** no apoptosis-inducing activity

**Q.** How did the “apoptosis-inducing activity of the non-heated solution” value [1] turn out when O=C[C@@H](O)[C@H](O)[C@H](O)CO [D-(−)-arabinose] was run?
**A.** no apoptosis-inducing activity

Source: patent publication US6809091B1, “Substances capable of inducing apoptosis” (Takara Bio Inc., priority 1998, dated 2004)
